Patent publication US7232559B1, “Diagnostic agents for pancreatic exocrine function” (Tokyo Gas Company Limited, priority 1999, dated 2007)
Several values for one entry are separate records, joined by “and”; a condition that tells them apart may be missing. Equal values may be shown once. Values belong to the compound of their own block, whether it stands above or below them. Primed or numbered codes have the meaning given here. 13C‑Gly = glycine labeled with carbon-13 (13C); Bz′ = not defined here

Legend:
Wistar male rat pancreas = experiment: Model of chronic pancreatitis by oleic acid injection into the pancreatic duct: enzyme contents; type: in vivo
Experimental: A model of chronic pancreatitis in rats were prepared by injecting oleic acid into the pancreatic duct (Mundlos et al., Pancreas 1:29 (1986)). After overnight fast, a Wistar male rat of 5 weeks old was anesthetized by intraperitoneal administration of Nembutal (50 mg/kg). The abdominal wall was shaved and the rat was fixed supinely on an operating table. An Isodine solution was applied to sterilize, and a 3 to 4 cm midline incision was made on the abdomen. The duodenum and the pancreas were drawn out and a 25 G needle was pierced through the duodenal wall. A polyethylene cannula (PE-10) was inserted through the pierced hole into the duodenum and further inserted into the common bile duct by about 5 mm from the papilla. The inserted cannula was fixed by a microclip. Further, the biliary duct was closed by a microclip in order to prevent oleic acid from flowing into the liver. Oleic acid (50 μl) was injected at a rate of 20 μl/min by a microsyringe pump. After the injection was completed, the rat was allowed to stand for 2 minutes so that the oleic acid was distributed throughout the pancreas. The microclips and cannula were removed and the duodenum was returned. The endothelium was sutured with silk thread (Nescosuture silk suture thread 3-0, Nihon Shoji KK) and the outer skin was sutured with a skin stapler (Appose ULC, No. 8034-12, 5.7×3.8 mm). As a control, only laparotomy was carried out. These rats subjected to the operation were kept under free intake of standard food and water at 23° C., relative humidity of 55% until use. After injecting oleic acid into the pancreatic duct and being kept for 3 weeks, these rats (oleic acid-injected rats) were subjected to measurement of amylase in the blood, and to quantitative determination of chymotrypsinogen and amylase contents in the pancreas (FIG. 1). An extraction buffer (20 mM HEPPS+Na, pH 8.0, 100 mM KCl, 0.5% (w/v) Triton X-100) was added to the removed pancreas to the total volume of 10 ml. The material was subjected to ultrasonic disruption (Bionic 7250, Seiko, Sonics & Materials) and centrifuged at 10,000×g for 20 minutes to yield a pancreatic extract as a supernatant. […] After the reaction, 10 μl of 100% (W/V) TCA solution was added and centrifuged at 15,000×g for 5 minutes and the PABA in the supernatant was quantitatively determined using a PABA measuring kit (Eisai). The amylase activity in the pancreatic extract was measured using Fuji Dri-Chem. Both units of activity (U) show μ mole release/min.

[1] = test system: chronic pancreatitis rats and control (normal) rats; experiment: ^13C-breath test (Δ^13C in exhaled CO2 after oral administration); type: in vivo, rat; conditions: for Δ^13C (‰) value at 30 minutes after the administration (group mean): 30 mg/kg oral; for Δ^13C (‰) (mean) value at 15 minutes after the administration: 420 mg/kg oral
Experimental: A model of chronic pancreatitis in rats were prepared by injecting oleic acid into the pancreatic duct (Mundlos et al., Pancreas 1:29 (1986)). After overnight fast, a Wistar male rat of 5 weeks old was anesthetized by intraperitoneal administration of Nembutal (50 mg/kg). The abdominal wall was shaved and the rat was fixed supinely on an operating table. An Isodine solution was applied to sterilize, and a 3 to 4 cm midline incision was made on the abdomen. The duodenum and the pancreas were drawn out and a 25 G needle was pierced through the duodenal wall. A polyethylene cannula (PE-10) was inserted through the pierced hole into the duodenum and further inserted into the common bile duct by about 5 mm from the papilla. The inserted cannula was fixed by a microclip. Further, the biliary duct was closed by a microclip in order to prevent oleic acid from flowing into the liver. Oleic acid (50 μl) was injected at a rate of 20 μl/min by a microsyringe pump. After the injection was completed, the rat was allowed to stand for 2 minutes so that the oleic acid was distributed throughout the pancreas. The microclips and cannula were removed and the duodenum was returned. The endothelium was sutured with silk thread (Nescosuture silk suture thread 3-0, Nihon Shoji KK) and the outer skin was sutured with a skin stapler (Appose ULC, No. 8034-12, 5.7×3.8 mm). As a control, only laparotomy was carried out. These rats subjected to the operation were kept under free intake of standard food and water at 23° C., relative humidity of 55% until use.
The rat of 9 weeks old was fixed without anesthesia in a rat holder for a microwave irradiation apparatus. The breath was collected at a rate of about 100 to 300 ml/min using a stroke pump (Variable Stroke Pump VS-500, Shibata Kagaku Kogyo) and introduced directly to a flow cell of a ^13CO2 analyzer EX-130S (Nihon Bunko). A Perma Pure drier (MD-050-12P, Perma Pure INC.) was set between the rat holder and stroke pump to remove out water vapor in the breath. […]
Output data from the ^13CO2 analyzer were AD converted and put into a personal computer (Apple Power Macintosh 8500). Using a data processing soft ware Lab VIEW (National Instruments), 10 data points at every 100 msec were integrated and averaged in an interval of 5 seconds and converted to ^13C atom %, Δ^13C (‰), and CO2 concentration (%) In this manner, the ^13C breath test was continuously carried out. […] CO2 concentration in the collected breath was held at 3±0.5%.
Δ^13C (‰) was calculated from the ^13C concentration in the exhaled CO2 at each time point (^13C tmin) and the ^13C concentration in standard CO2 (^13C std) according to the following equation: Δ^13C (‰)=[(^13C tmin−^13C 0min)/^13C std]×1000

[2] = biological target: T1, chymotrypsin (from bovine pancreas) (Bos taurus, UniProt P00766); experiment: Degradation by chymotrypsin (leucine released, ninhydrin reaction); type: biochemical
T1 construct: purchased Worthington Biochemical Corporation #1432, Lot 37A906; host or cells: bovine pancreas (natural source)
Experimental: Bz-DL-Phe-(^13C-Leu) was reacted with chymotrypsin and the degradation product, leucine, generated upon action of chymotrypsin was quantitatively determined by ninhydrin reaction. The reaction was carried out in 20 mM HEPPS-Na (pH 8.0), 23 mM Bz-DL-Phe-(^13C-Leu), 0.16 mg/ml chymotrypsin (from bovine pancreas, Worthington Biochemical Corporation, #1432, Lot 37A906) at 37° C. for 15 minutes. After reaction, 50 μl of citrate buffer (citric acid monohydrate), 20 μl of ninhydrin solution (50 mg/ml solution in methyl cellosolve) and 100 μl of KCN solution (0.01 M aqueous KCN solution diluted 50 times with methyl cellosolve) were added to 100 μl of the reaction mixture and heated at 100° C. for 15 minutes. After cooling the ninhydrin reaction mixture to room temperature, 150 μl of 60% (V/V) ethanol was added to 100 μl of the ninhydrin reaction mixture and stirred followed by determination of an absorbance at a wave length of 570 nm. An experiment wherein all the reactions that were carried out without adding Bz-DL-Phe-(^13C-Leu) was taken as a “blank,” and leucine was used as a standard.

[3] = oleic acid-injected rats (n=17), 50 μl into pancreatic duct, 3 weeks after
[4] = chronic pancreatitis rats #1-#4, 250 mg/kg oral
[5] = chronic pancreatitis rats (n=4), 250 mg/kg oral
[6] = normal rats #1-#4, 250 mg/kg oral
[7] = normal rats (n=4), 250 mg/kg oral

Compound: CCCCCCCC/C=C\CCCCCCCC(=O)O [oleic acid]
rats evaluated to have pancreatitis (chymotrypsinogen content below mean−2SD of control) (Wistar male rat pancreas; 12 rats among 17 oleic acid-injected rats): 70%
blood amylase concentration (Wistar male rat pancreas; oleic acid-injected rats (n=17), 3 weeks after): 2137 U
amylase content in the pancreas (Wistar male rat pancreas; [3]): 789 U
chymotrypsinogen content in the pancreas (Wistar male rat pancreas; [3]): 8.1 U

Compound: Arg-(^13C-Leu)
Δ^13C (‰) at 30 min, individual rat ([1]; chronic pancreatitis rats #1-#4, 30 mg/kg oral): 3.74 ‰ and 6.97 ‰ and 4.87 ‰ and 1.92 ‰
Δ^13C (‰) value at 30 minutes after the administration (group mean) ([1]; chronic pancreatitis rats (n=4)): 4.37±1.83 ‰
Δ^13C (‰) at 30 min, individual rat ([1]; normal rats #1-#4, 30 mg/kg oral): 13.74 ‰ and 15.37 ‰ and 10.08 ‰ and 10.30 ‰
Δ^13C (‰) value at 30 minutes after the administration (group mean) ([1]; normal rats (n=4)): 12.37±2.26 ‰

Compound: Bz-Ala-Ala-Ala-Ala-(^13C-Gly)-Phe-Leu ({Bz′}-AAAA-{13C‑Gly-Phe-Leu})
Δ^13C (‰) at 15 min, individual rat ([1]; chronic pancreatitis rats #1-#2, 420 mg/kg oral): −1.90 ‰ and 3.12 ‰
Δ^13C (‰) (mean) value at 15 minutes after the administration ([1]; chronic pancreatitis rats (n=2)): 0.61 ‰
Δ^13C (‰) at 15 min, individual rat ([1]; normal rats #1-#2, 420 mg/kg oral): 23.47 ‰ and 43.16 ‰
Δ^13C (‰) (mean) value at 15 minutes after the administration ([1]; normal rats (n=2)): 33.32 ‰

Compound: Bz-Arg-(^13C-Leu).HCl
Δ^13C (‰) at 20 min, individual rat ([1]; chronic pancreatitis rats #1-#3, 100 mg/kg oral): 3.69 ‰ and 11.25 ‰ and −5.79 ‰
Δ^13C (‰) value at 20 minutes after the administration (group mean) ([1]; chronic pancreatitis rats (n=3), 100 mg/kg oral): 3.05±6.97 ‰
Δ^13C (‰) at 20 min, individual rat ([1]; normal rats #1-#3, 100 mg/kg oral): 79.91 ‰ and 51.94 ‰ and 74.46 ‰
Δ^13C (‰) value at 20 minutes after the administration (group mean) ([1]; normal rats (n=3), 100 mg/kg oral): 68.77±12.01 ‰

rate of degradation ([2]; 23 mM substrate, 0.16 mg/ml chymotrypsin, 20 mM HEPPS-Na pH 8.0, 37° C., 15 minutes): 1.72 nmole/mg chymotrypsin/min
substrate for chymotrypsin ([2]; same reaction, leucine produced): could be a substrate for chymotrypsin
Compound: Bz-DL-Phe-(^13C-Leu)
time course of Δ^13C (‰) ([1]; 7 cases of the chronic pancreatitis rats (n=8), 250 mg/kg oral): the degree of increase was small and continued to slowly increase for 30 minutes

Compound: Bz-L-Phe-(^13C-Leu)
Δ^13C (‰) at 10 min, individual rat [1, 4]: 1.61 ‰ and 3.28 ‰ and 17.21 ‰ and 5.77 ‰
Δ^13C (‰) value at 10 minutes after the administration (group mean) [1, 5]: 6.97±6.09 ‰
Δ^13C (‰) at 10 min, individual rat [1, 6]: 60.25 ‰ and 165.37 ‰ and 203.16 ‰ and 31.29 ‰
Δ^13C (‰) value at 10 minutes after the administration (group mean) [1, 7]: 115.02±71.26 ‰

Compound: Bz-Tyr-(^13C-Leu)
Δ^13C (‰) at 20 min, individual rat [1, 4]: 8.76 ‰ and 3.58 ‰ and 2.44 ‰ and −0.15 ‰
Δ^13C (‰) value at 20 minutes after the administration (group mean) [1, 5]: 3.66±3.24 ‰
Δ^13C (‰) at 20 min, individual rat [1, 6]: 65.76 ‰ and 21.02 ‰ and 80.02 ‰ and 111.32 ‰
Δ^13C (‰) value at 20 minutes after the administration (group mean) [1, 7]: 69.53±32.50 ‰
